Measurements as given in paper PMC7075649 (Journal of Medicinal Chemistry, 2019).
pEC50: −log10 of the molar value. “Also recorded” adds a separate entry of the source.

How the values were obtained:
+RNA viruses = format: cell-based
CHIKV = format: cell-based, chikungunya virus
Vero cells = details: African green monkey
[1] = target: recombinant human SAH hydrolase (Homo sapiens, UniProt P23526); format: biochemical
AK^+ and AK^– cells = details: cited from earlier work
ZIKV = experiment: microbe, parasite or virus in culture; format: cell-based; details: Zika virus, read-out: ZIKV EC50

recombinant human SAH hydrolase, sequence (P23526 whole entry): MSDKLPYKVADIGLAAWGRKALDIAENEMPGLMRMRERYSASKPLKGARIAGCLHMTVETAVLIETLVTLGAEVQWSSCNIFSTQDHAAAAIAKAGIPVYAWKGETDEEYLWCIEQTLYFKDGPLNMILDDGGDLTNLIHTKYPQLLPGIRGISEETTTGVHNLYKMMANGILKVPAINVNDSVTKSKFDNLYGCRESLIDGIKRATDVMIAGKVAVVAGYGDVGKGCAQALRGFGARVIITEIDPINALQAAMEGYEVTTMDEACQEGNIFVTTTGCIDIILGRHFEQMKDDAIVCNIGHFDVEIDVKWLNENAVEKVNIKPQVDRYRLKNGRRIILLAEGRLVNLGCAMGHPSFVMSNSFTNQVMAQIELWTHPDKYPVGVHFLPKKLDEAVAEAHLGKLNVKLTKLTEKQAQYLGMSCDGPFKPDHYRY

CC(C)OC(=O)[C@H](C)N[P@](=O)(OC[C@@H]1[C@@H](O)[C@@H](O)[C@H](n2cnc3c(N)ncnc32)C1(F)F)Oc1ccccc1 [Compound 3a, Iso-propyl ((S)-(((1R,3S,4S,5R)-3-(6-Amino-9H-purin-9-yl)-2,2-difluoro-4,5-dihydroxycyclopentyl)methoxy)(phenoxy)phosphoryl)-L-alaninate]
antiviral activity against +RNA viruses (in words) (+RNA viruses): potent broad-spectrum antiviral activity; also recorded: exhibited significant broad-spectrum antiviral activities

CNc1ncnc2c1ncn2[C@H]1[C@H](O)[C@H](O)[C@@H](CO)C1(F)F [Compound 2e, (1S,2R,3R,5S)-4,4-Difluoro-3-(hydroxymethyl)-5-(6-(methylamino)-9H-purin-9-yl)cyclopentane-1,2-diol]
antiviral activity against +RNA viruses (in words) (+RNA viruses): did not show significant antiviral activities

Nc1ncnc2c1ncn2[C@H]1[C@H](O)[C@H](O)[C@@H](CO)C1(F)F [Compound 2c, (1R,2S,3S,5R)-3-(6-Amino-9H-purin-9-yl)-4,4-difluoro-5-(hydroxymethyl)cyclopentane-1,2-diol]
reduction of infectious CHIKV titers (CHIKV): more than 2 log
reduction in cytotoxicity versus 2a (Vero cells): > 5 fold

CNc1ncnc2c1ncn2[C@H]1[C@H](O)[C@H](O)[C@@H](CO)[C@H]1F [Compound 2d, (1S,2R,3R,4R,5S)-4-Fluoro-3-(hydroxymethyl)-5-(6-(methylamino)-9H-purin-9-yl)cyclopentane-1,2-diol]
antiviral activity against +RNA viruses (in words) (+RNA viruses): did not show significant antiviral activities
SAH hydrolase inhibitory activity, fold decrease versus 2a [1]: 11.9 fold

Nc1ncnc2c1ncn2[C@@H]1C[C@H](CO)[C@@H](O)[C@H]1O [Compound 1, (−)-Aristeromycin]
toxicity in AK^+ and AK^– cells (AK^+ and AK^– cells): toxic at low concentrations

O=c1ccn([C@H]2[C@H](O)[C@H](O)[C@@H](CO)[C@@H]2F)c(=O)[nH]1 [Compound 2g, 1-((1S,2S,3R,4R,5S)-2-Fluoro-4,5-dihydroxy-3-(hydroxymethyl)cyclopentyl)pyrimidine-2,4(1H,3H)-dione]
pEC50 (ZIKV): < 4.00

O=c1ccn([C@H]2[C@H](O)[C@H](O)[C@@H](CO)[C@H]2F)c(=O)[nH]1 [Compound 2f, 1-((1S,2R,3R,4R,5S)-2-Fluoro-4,5-dihydroxy-3-(hydroxymethyl)cyclopentyl)pyrimidine-2,4(1H,3H)-dione]
pEC50 (ZIKV): < 4.00
